Results on eleven molecules are retold here after ChEMBL document CHEMBL1201862, “PubChem BioAssay data set” (2004).

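Interpolation was linear, between the two tested concentrations surrounding the appropriate level; five concentrations were tested over 48 hours in 96-well plates. At the GI50, growth is halved.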 Active and inactive are the calls of the source. No stated cut-off is given here; in the data, active = GI50 up to about 1.1 µM and inactive = higher. Where only a bound is given, the exact number is not on record here.

Assay in all cases: NCI-60 cell line screen, 48 h
Test [1] has as its system CAKI-1.
The subject of test [2] is COLO 205.
Test [3] has as its system HCC 2998.
In test [4] the test system is HOP-92.
Test [5] deals with HT-29.
Test [6] relates to Hs-578T.
Test [7] concerns K562.
Test [8] has as its system LOX IMVI.
Test [9] relates to M14.
Test [10] concerns MCF7.
For test [11], the system named is Malme-3M.
The subject of test [12] is OVCAR-5.
Test [13] concerns RPMI-8226.
Test [14] relates to SK-MEL-28.
Test [15] relates to SK-MEL-5.
The subject of test [16] is SK-OV-3.
Test [17] has as its system SN12C.
For test [18], the system named is T47D.
Test [19] has as its system UO-31.
Test [20] relates to SF-539.

On to `CC(O)(c1ccccc1)c1nccc2ccccc12` (stereo unspecified), for which the GI50 was > 100 µM (inactive) in test [1]; 70.6 µM (inactive) in test [2]; > 100 µM (inactive) in test [3]; 22.4 µM (inactive) in [4]; 74.3 µM (inactive) in [5]; 45.8 µM (inactive) in test [6]. Further, the GI50 in [7] is 35.8 µM (inactive); in [8], 75.9 µM (inactive); in [9] it was 74.5 µM (inactive); in test [10] it was 80.9 µM (inactive); in test [11], 64.1 µM (inactive); in test [12], 67.1 µM (inactive). The GI50 was 37.3 µM (inactive) in test [13]; > 100 µM (inactive) in [14]; 44.2 µM (inactive) in test [15]; 96.6 µM (inactive) in test [16]; > 100 µM (inactive) in [17]; 68.1 µM (inactive) in test [18]. In addition, the GI50 in test [19] was 51.3 µM (inactive).
On to `Cc1sc2c(c1C)C(=O)c1cccn1-2`, for which the GI50 was 85.7 µM (inactive) in test [1]; > 100 µM (inactive) in test [2]; > 100 µM (inactive) in [3]; 53.8 µM (inactive) in [5]; 37.7 µM (inactive) in [6]; 38.8 µM (inactive) in test [7]. The GI50 in test [8] was 64.9 µM (inactive); in [9], > 100 µM (inactive); in test [10] it was 68.5 µM (inactive); in test [11], > 100 µM (inactive); in test [12] it was > 100 µM (inactive); in test [13] it was 50.7 µM (inactive). Besides, the GI50 in test [14] is > 100 µM (inactive); in test [15] it was > 100 µM (inactive); in test [16], > 100 µM (inactive); in test [17] it was 78.2 µM (inactive); in test [18] it was 39.8 µM (inactive); in [19], 54.7 µM (inactive).
For `O=c1[nH][nH]c(=O)n1Cc1ccccc1Cn1c(=O)[nH][nH]c1=O`, the GI50 in [1], in test [2], in [4], in [5], in test [6] and in test [7] was > 100 µM (inactive) in each case. Besides, the GI50 in test [8], in [9], in test [11], in test [12], in [13] and in test [20] was > 100 µM (inactive) in each case. Further, the GI50 in [14], in [15], in test [16], in test [17], in test [18] and in test [19] was > 100 µM (inactive) each time.
Turning to `CCOC(=O)C(Cc1cn(C(C)=O)c2ccccc12)P(=O)(OCC)OCC` (stereo unspecified), the GI50 in test [1], in test [2], in test [3], in test [4], in test [5] and in test [6] was > 100 µM (inactive) in each case. In addition, the GI50 in test [7], in [8], in test [9], in [12], in test [13] and in [14] was > 100 µM (inactive) in each case. Moreover, the GI50 in [15], in test [16], in test [17], in test [18] and in test [19] was > 100 µM (inactive) throughout.
Consider `C=C(CCOC)CCC1CCCCC(=C)[C@H]1OC(C)=O` (stereo partly specified), for which the GI50 in test [1], in test [2], in test [4], in test [5], in test [6] and in test [7] was > 100 µM (inactive) each time. Further, the GI50 is > 100 µM (inactive) in test [8]; > 100 µM (inactive) in test [9]; > 100 µM (inactive) in test [10]; > 100 µM (inactive) in test [12]; 51.1 µM (inactive) in [13]; > 100 µM (inactive) in test [20]. For the same molecule, the GI50 in test [14] was > 100 µM (inactive); in test [15], 63.2 µM (inactive); in [16], > 100 µM (inactive); in test [17], > 100 µM (inactive); in [18], > 100 µM (inactive); in [19], > 100 µM (inactive).
Regarding `CC1=CC[C@H](C[C@H](C#CCCCC2OCCO2)O[Si](C(C)C)(C(C)C)C(C)C)C(=O)CC1`, the GI50 in test [1], in test [2], in [3], in [4], in test [5] and in test [6] was > 100 µM (inactive) each time. The GI50 in test [7], in test [8], in [9], in test [10], in [11] and in [12] was > 100 µM (inactive) each time. The GI50 in test [13], in [14], in test [15], in [16], in test [17] and in test [18] was > 100 µM (inactive) throughout. For the same molecule, the GI50 in test [19] was > 100 µM (inactive).
Turning to `CCOC(=O)c1cc(Sc2ccc(N)c(C(=O)OCC)c2)ccc1N`, the GI50 is 7.69 µM (inactive) in test [1]; 60.8 µM (inactive) in test [2]; 58.2 µM (inactive) in test [4]; 28.8 µM (inactive) in [5]; 21.5 µM (inactive) in test [6]; 7.98 µM (inactive) in test [7]. For the same molecule, the GI50 was > 100 µM (inactive) in test [9]; 13.2 µM (inactive) in test [10]; 11.6 µM (inactive) in [11]; 12.1 µM (inactive) in [12]; 24 µM (inactive) in test [13]; 24.9 µM (inactive) in test [20]. The GI50 in test [14] is > 100 µM (inactive); in test [15], > 100 µM (inactive); in test [16] it was > 100 µM (inactive); in [17], 18 µM (inactive); in [18], > 100 µM (inactive).
`Cc1cc(-c2nc3ccccc3s2)ccc1NC(=O)[C@H](C)N`: the GI50 in test [1] was 11.3 µM (inactive); in test [2] it was 13.2 µM (inactive); in [3] it was 10.6 µM (inactive); in test [4] it was 15.7 µM (inactive); in [5], 14.4 µM (inactive); in [6], 24.3 µM (inactive). In addition, the GI50 was 6.95 µM (inactive) in test [7]; 5.06 µM (inactive) in test [8]; 3.14 µM (inactive) in [9]; 0.372 µM (active) in [10]; 24 µM (inactive) in test [11]; 0.441 µM (active) in [12]. In addition, the GI50 in test [14] is 15.7 µM (inactive); in test [15], 13 µM (inactive); in test [16] it was 14.9 µM (inactive); in test [17] it was 14.7 µM (inactive); in test [18] it was 0.128 µM (active); in test [19], 5.78 µM (inactive).
In the case of `CCCc1c(O)nc(Nc2nc3ccccc3[nH]2)[nH]c1=O`, the GI50 in [1], in test [2], in [4], in test [5], in [6] and in test [7] was > 100 µM (inactive) in each case. In addition, the GI50 in test [9], in test [11], in test [12], in test [13], in [20] and in [15] was > 100 µM (inactive) each time. Further, the GI50 in test [16], in test [17], in [18] and in [19] was > 100 µM (inactive) each time.
For the molecule `CC1(C)N=C(N)N=C(N)N1c1cccc(OCc2cccc([N+](=O)[O-])c2)c1`, the GI50 in test [1] is > 100 µM (inactive); in [2] it was 9.93 µM (inactive); in test [4] it was > 100 µM (inactive); in test [5], 6.03 µM (inactive); in test [6], > 100 µM (inactive); in [7] it was 0.75 µM (active). In addition, the GI50 is 9.27 µM (inactive) in test [8]; 51.8 µM (inactive) in test [9]; 34.1 µM (inactive) in test [10]; > 53.1 µM (inactive) in test [11]; > 30.6 µM (inactive) in test [12]; 32.7 µM (inactive) in test [13]. Also, the GI50 in test [20] is 17.6 µM (inactive); in test [14], > 55.2 µM (inactive); in test [15], 4.86 µM (inactive); in test [16], > 100 µM (inactive); in test [17], 9.98 µM (inactive); in [18], 38.3 µM (inactive). Moreover, the GI50 in test [19] was > 100 µM (inactive).
With `Cc1cc2cc3c(cc2c(-c2ccc(N)cc2)n1)OCO3`, the GI50 in [1] was 26.5 µM (inactive); in [2], 26.8 µM (inactive); in [4], 13.9 µM (inactive); in test [5] it was 22.2 µM (inactive); in test [6] it was 51.3 µM (inactive); in [7], 23.1 µM (inactive). Also, the GI50 in test [9] was 81.8 µM (inactive); in [10], 7.74 µM (inactive); in test [11] it was 86.9 µM (inactive); in test [12], 36.6 µM (inactive); in [13] it was 23.8 µM (inactive); in test [20], > 100 µM (inactive). The GI50 in test [15] is 24.2 µM (inactive); in test [16] it was > 100 µM (inactive); in test [17], 39.4 µM (inactive); in [18], 29.6 µM (inactive); in test [19], 29.2 µM (inactive).
